Consider 19 compounds from PubChem BioAssay (NCI).

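Tested at 5 concentrations; 48 h exposure; 96-well plates; endpoints linearly interpolated, else capped at highest concentration. The concentration for 50% growth inhibition is given as GI50. TGI: total growth inhibition.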

Among the test systems are A498 renal; HL-60(TB) leukemia; HOP-92 NSCLC; HT29 colon; IGROV1 ovarian; RPMI-8226 leukemia; SF-295 CNS; SK-MEL-5 melanoma; M14 melanoma; OVCAR-4 ovarian.
What all share (test): inhibition of tumour cell growth, NCI panel, 48 h

`CC(=O)NNc1ncc(C(=O)/C=C/c2ccccc2C)s1`: the TGI in the assay with A498 renal, in the assay on HL-60(TB) leukemia, with HOP-92 NSCLC, in the assay with HT29 colon, in the assay on IGROV1 ovarian and in the assay on RPMI-8226 leukemia was over 100 µM each time. For the same compound, the TGI in the assay on SF-295 CNS and in the assay with SK-MEL-5 melanoma was over 100 µM throughout.
Consider `OCC1CC2C=CCC(C2)C1` (centres undefined), for which the TGI with A498 renal, in the assay with HL-60(TB) leukemia, with HOP-92 NSCLC, in the assay on HT29 colon, in the assay with IGROV1 ovarian and with M14 melanoma was over 100 µM each time. In addition, the TGI in the assay on OVCAR-4 ovarian, in the assay on RPMI-8226 leukemia, in the assay with SF-295 CNS and with SK-MEL-5 melanoma was over 100 µM throughout.
For the compound `O=C1CC=C2C3CC4N(CCC45c4ccccc4N1C25)C/C3=C\CO` (centres undefined), the TGI with A498 renal, in the assay on HL-60(TB) leukemia, in the assay with HOP-92 NSCLC, in the assay with HT29 colon, in the assay with IGROV1 ovarian and in the assay on OVCAR-4 ovarian was over 100 µM in each case. Moreover, the TGI in the assay with RPMI-8226 leukemia, in the assay with SF-295 CNS and with SK-MEL-5 melanoma was over 100 µM throughout.
For the compound `O=[N+]([O-])c1cc(I)cc(/C=N/NS(=O)(=O)c2ccc(F)cc2)c1O`, the TGI in the assay on A498 renal amounted to 91.6 µM; in the assay with HL-60(TB) leukemia, 54.4 µM; in the assay on HOP-92 NSCLC it was 36.3 µM; in the assay on HT29 colon, 46.5 µM; in the assay with IGROV1 ovarian, 95.7 µM; in the assay with M14 melanoma it was 82.3 µM. Besides, the TGI was over 100 µM in the assay on OVCAR-4 ovarian, 54.8 µM in the assay with RPMI-8226 leukemia, 98.2 µM in the assay on SF-295 CNS and 45.2 µM in the assay with SK-MEL-5 melanoma.
For the compound `Cc1cccc2c(=O)c3c(sc12)c(NCCCN)nc1ccccc13`, the GI50 is 1.88 µM in the assay on A498 renal; 1.71 µM in the assay on HL-60(TB) leukemia; 1.53 µM in the assay with HOP-92 NSCLC; 1.18 µM in the assay on IGROV1 ovarian; 1.58 µM in the assay on M14 melanoma; 1.58 µM with OVCAR-4 ovarian. The GI50 in the assay on RPMI-8226 leukemia is 1.77 µM; in the assay on SF-295 CNS, 1.75 µM; in the assay on SK-MEL-5 melanoma, 1.74 µM. The TGI was 5.64 µM with A498 renal; 3.34 µM in the assay with HL-60(TB) leukemia; 5.12 µM in the assay on HOP-92 NSCLC; 2.63 µM in the assay on IGROV1 ovarian; 3.13 µM with M14 melanoma; 3.25 µM in the assay with OVCAR-4 ovarian. For the same compound, the TGI with RPMI-8226 leukemia turned out to be 3.88 µM; in the assay with SF-295 CNS, 3.29 µM; in the assay with SK-MEL-5 melanoma it was 3.18 µM.
Turning to `OC(c1cc2ccccc2[nH]1)C(O)(c1cc2ccccc2[nH]1)c1cc2ccccc2[nH]1` (centres undefined), the TGI in the assay on HL-60(TB) leukemia is 127 µM; in the assay with HOP-92 NSCLC, 50.1 µM; in the assay with HT29 colon, 36.2 µM; in the assay on IGROV1 ovarian it was 47.9 µM; in the assay with RPMI-8226 leukemia it was over 245 µM; in the assay with SF-295 CNS, 31.3 µM. In addition, in the assay with SK-MEL-5 melanoma, the TGI amounted to 39.8 µM.
Regarding `CCOc1ccc(Nc2ccnc3cc(Cl)ccc23)cc1`, the GI50 is 2.61 µM with A498 renal; over 100 µM in the assay with HL-60(TB) leukemia; 16.1 µM in the assay with HOP-92 NSCLC; 3.88 µM with HT29 colon; over 100 µM with IGROV1 ovarian; 78.3 µM in the assay on OVCAR-4 ovarian. Further, the GI50 in the assay with RPMI-8226 leukemia was over 100 µM; in the assay on SF-295 CNS it was 34.4 µM; with SK-MEL-5 melanoma it was over 100 µM. Also, the TGI with A498 renal, with HL-60(TB) leukemia, in the assay on HOP-92 NSCLC, in the assay with HT29 colon, with IGROV1 ovarian and in the assay on OVCAR-4 ovarian was over 100 µM each time. The TGI in the assay on RPMI-8226 leukemia, in the assay on SF-295 CNS and with SK-MEL-5 melanoma was over 100 µM in each case.
With `COC(=O)CCCCCOS(=O)(=O)c1ccc(C)cc1`, the TGI in the assay with A498 renal, with HL-60(TB) leukemia, in the assay on HOP-92 NSCLC, with HT29 colon, in the assay with IGROV1 ovarian and in the assay on M14 melanoma was over 100 µM in each case. Besides, the TGI with SF-295 CNS and with SK-MEL-5 melanoma was over 100 µM throughout.
On to `CC1=NC(C)=C(/C(C)=N/NC(=O)c2ccccc2O)C(C)/C1=C(/C)NNC(=O)c1ccccc1O` (centres undefined), for which the TGI with A498 renal is 99.6 µM; in the assay on HL-60(TB) leukemia it was 22.4 µM; in the assay with HOP-92 NSCLC, 85.9 µM; in the assay on HT29 colon, over 100 µM; with IGROV1 ovarian, 33 µM; in the assay with M14 melanoma, over 100 µM. For the same compound, the values for the TGI in the assay on OVCAR-4 ovarian and with SK-MEL-5 melanoma were 48.4 µM and 38.9 µM, respectively.
For `CC1CCCc2c1n[nH]c2CC1CC(=O)NC(=O)C1` (centres undefined), the TGI in the assay on A498 renal, in the assay on HL-60(TB) leukemia, in the assay with HOP-92 NSCLC, in the assay on HT29 colon, with IGROV1 ovarian and in the assay with M14 melanoma was over 100 µM throughout. Besides, the TGI in the assay on OVCAR-4 ovarian, in the assay on RPMI-8226 leukemia and in the assay with SF-295 CNS was over 100 µM throughout.
Turning to `O=C(NC1CCCCC1)NC12CC3CC(CC(F)(C3)C1)C2`, the TGI in the assay with A498 renal, in the assay on HL-60(TB) leukemia, in the assay on HOP-92 NSCLC, in the assay on HT29 colon, in the assay with IGROV1 ovarian and with M14 melanoma was over 100 µM each time. Also, the TGI with RPMI-8226 leukemia and in the assay on SK-MEL-5 melanoma was over 100 µM in each case.
Regarding `NCCCNCc1c2ccccc2c(CNCCCN)c2ccccc12`, the TGI is 76.8 µM in the assay on A498 renal; 39.3 µM in the assay on HL-60(TB) leukemia; 49.1 µM with HOP-92 NSCLC; 94.3 µM with HT29 colon; over 100 µM in the assay on IGROV1 ovarian; 26.5 µM in the assay on OVCAR-4 ovarian. For the same compound, the results for the TGI in the assay with SF-295 CNS and in the assay on SK-MEL-5 melanoma were 56.2 µM and 66.6 µM, respectively.
For `Cn1nc(-c2ccccc2)c2c(/C=C/c3ccc(F)cc3)onc2c1=O`, the TGI with HL-60(TB) leukemia, with HOP-92 NSCLC, in the assay with HT29 colon, with IGROV1 ovarian, in the assay on M14 melanoma and with RPMI-8226 leukemia was over 100 µM each time. Further, the TGI in the assay with SK-MEL-5 melanoma was over 100 µM.
For the compound `CCCCNC(=O)Oc1ccc(/C(=C(\C)c2ccc(OC)cc2)c2ccc(OCCN3CCCCC3)cc2)cc1`, the GI50 with HL-60(TB) leukemia was 1.53 µM; in the assay with HOP-92 NSCLC, 1.57 µM; in the assay on HT29 colon, 0.873 µM; in the assay with IGROV1 ovarian, 2.6 µM; with M14 melanoma, 1.7 µM; in the assay on OVCAR-4 ovarian, 2.29 µM. In addition, the results for the GI50 in the assay on RPMI-8226 leukemia, in the assay with SF-295 CNS and with SK-MEL-5 melanoma were 2.14 µM, 2.27 µM and 1.68 µM, respectively. In addition, the TGI in the assay with HL-60(TB) leukemia was 3.58 µM; in the assay on HOP-92 NSCLC, 3.71 µM; in the assay with HT29 colon it was 6.77 µM; in the assay on IGROV1 ovarian, 6.46 µM; in the assay with M14 melanoma, 3.23 µM; with OVCAR-4 ovarian it was 8.2 µM. Moreover, the TGI was 5.13 µM in the assay with RPMI-8226 leukemia, 5.47 µM in the assay with SF-295 CNS and 3.08 µM in the assay with SK-MEL-5 melanoma.
`Cc1ccc([N+](=O)[O-])cc1NC(=O)C(=O)Cc1nc2ccc(C(=O)c3ccccc3)cc2[nH]c1=O`: the TGI in the assay on HL-60(TB) leukemia, in the assay on HOP-92 NSCLC, with HT29 colon, with IGROV1 ovarian, in the assay with M14 melanoma and with OVCAR-4 ovarian was over 100 µM each time. Moreover, the TGI with SF-295 CNS and in the assay with SK-MEL-5 melanoma was over 100 µM in each case.
On to `COc1ccc(NC(=O)c2ccc(C(F)(F)F)nc2Nc2ccc(Cl)cc2C)cc1Cl`, for which the GI50 was 5.02 µM in the assay with A498 renal; 2.4 µM in the assay with HL-60(TB) leukemia; 2.9 µM with HOP-92 NSCLC; 3.57 µM in the assay on HT29 colon; 7.14 µM in the assay with M14 melanoma; 3.18 µM in the assay with OVCAR-4 ovarian. Also, the GI50 with RPMI-8226 leukemia was 2.07 µM; in the assay on SF-295 CNS, 2.32 µM; in the assay with SK-MEL-5 melanoma, 4.09 µM. Also, the TGI was 17.5 µM with A498 renal; 5.37 µM in the assay on HL-60(TB) leukemia; 6.79 µM with HOP-92 NSCLC; 14 µM in the assay on HT29 colon; 22.3 µM in the assay with M14 melanoma; 17.5 µM in the assay on OVCAR-4 ovarian. Also, the TGI worked out at 4.88 µM in the assay with RPMI-8226 leukemia, 12.7 µM with SF-295 CNS and 18.7 µM in the assay with SK-MEL-5 melanoma.
In the case of `O=c1cccccc1O`, the TGI in the assay with HL-60(TB) leukemia was 43.7 µM; in the assay on HOP-92 NSCLC, over 100 µM; with HT29 colon, over 100 µM; with IGROV1 ovarian, over 100 µM; in the assay with M14 melanoma it was over 100 µM; in the assay with OVCAR-4 ovarian it was over 100 µM. The TGI with RPMI-8226 leukemia, in the assay with SF-295 CNS and in the assay with SK-MEL-5 melanoma was over 100 µM in each case.
As to `COc1ccc(C2=NN(C(C)=O)c3nc4ccccc4nc3O2)cc1`, the TGI in the assay with HL-60(TB) leukemia is over 100 µM; in the assay with HOP-92 NSCLC it was 62.5 µM; in the assay with HT29 colon, over 100 µM; in the assay with IGROV1 ovarian, 27.4 µM; in the assay with OVCAR-4 ovarian, 98.4 µM; in the assay on RPMI-8226 leukemia, over 100 µM. The TGI in the assay with SF-295 CNS is over 100 µM.
In the case of `COc1ccc(OC)c(-c2cc(-c3ccc(Cl)cc3)nn2-c2ccccc2)c1`, the GI50 is 6.57 µM with A498 renal; 35.9 µM in the assay on HL-60(TB) leukemia; 29.3 µM in the assay with HOP-92 NSCLC; 59.5 µM in the assay on IGROV1 ovarian; 14.8 µM in the assay on M14 melanoma; 3.29 µM with RPMI-8226 leukemia. Also, the GI50 with SF-295 CNS is 33.5 µM; in the assay on SK-MEL-5 melanoma, 42.2 µM. The TGI with A498 renal is 59.7 µM; with HL-60(TB) leukemia, over 100 µM; in the assay on HOP-92 NSCLC, over 100 µM; with IGROV1 ovarian, over 100 µM; in the assay on M14 melanoma, 45.6 µM; with RPMI-8226 leukemia, 26.5 µM. Also, the TGI in the assay with SF-295 CNS and with SK-MEL-5 melanoma was over 100 µM in each case.
